Assay results reported in patent US20220213052A1, “INHIBITORS OF RNA-BINDING PROTEINS, COMPOSITIONS THEREOF, AND THERAPEUTIC USES THEROF” (The University of North Carolina at Chapel Hill, priority 2019, published 2022).

What was measured:
[1] = biological target: T1, HuR protein bound to ARE^Msi1-Biotin (Homo sapiens, UniProt Q15717); assay: RNA immunoprecipitation (RNA-IP) pull-down assay; format: cell-based; details: 10 μM
T1 construct: endogenous in cells; cytoplasmic lysate
Procedure: Pull-down Assay #1—RNA Immunoprecipitation (RNA-IP): Cells with HuR overexpression will be treated with compounds, then the cell cytoplasmic lysates were collected using NE-PER Nuclear and Cytoplasmic Extraction Kit (Thermo Scientific), and subsequently to the cell cytoplasmic lysates were added the biotinylated target ARE oligo from Msi1 mRNA (ARE^Msi1-Biotin). Following this, streptavidin beads were added to pull down HuR protein bound to ARE^Msi1-Biotin. Unlabeled target AREs used as positive control. Compounds of the present technology block the HuR pull-down by the biotinylated ARE oligo, illustrating inhibition of the HuR-mRNA interaction. For example, using 20 μM KH-39, 20 μM KH-56, and 10 μM KH-58 in such a RNA-IP assay provided the data illustrated in FIG. 5. The numbers immediately below the pictured bands in FIG. 5 are calculated by diving the band intensity of the particular sample by the band intensity of the DMSO treated sample (entry 3). […]

[2] = system: MDA-MB-231 cells; assay: Matrigel invasion assay; format: cell-based; details: 24 h pretreatment, 20 h incubation
Procedure: To examine the anti-metastatic effect of compounds of the present technology, an invasion assay using Matrigel Invasion Chambers coated with Matrigel Matrix was performed. To perform the assays, MDA-MB-231 cells pretreated with compounds for 24 hours are added to the chambers and then incubated for 20 hours. Cells that remained on the upper surface of the chamber are completely removed with a cotton swab. Cells that emigrated or invaded through the membrane/Matrigel to the bottom of the chamber were fixed and stained with 0.2% crystal violet and photographed.

[3] = biological target: T2, RNA-binding protein Lin-28 homolog B (LIN28B) (Homo sapiens, UniProt Q6ZN17); assay: LIN28B FP assay
T2 sequence (Q6ZN17 1-250): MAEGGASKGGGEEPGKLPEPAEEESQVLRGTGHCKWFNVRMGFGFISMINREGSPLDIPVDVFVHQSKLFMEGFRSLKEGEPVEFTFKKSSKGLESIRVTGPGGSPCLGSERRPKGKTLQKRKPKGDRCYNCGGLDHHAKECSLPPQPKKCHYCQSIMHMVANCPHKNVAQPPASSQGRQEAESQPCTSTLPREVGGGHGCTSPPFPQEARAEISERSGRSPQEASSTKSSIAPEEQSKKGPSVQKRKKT

[4] = system: triple-negative breast cancer cell line MDA-MB-231; assay: Cytotoxicity assay (WST-8), MDA-MB-231; format: cell-based; details: Homo sapiens, 96 h incubation
In short: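 Cells (3,000-5,000/well) were treated in triplicate with titrated compounds for 96 h, then WST-8 was added for 1-3 h at 37° C and absorbance read at 450 nm (650 nm correction). IC50 (50% growth inhibition vs vehicle) came from sigmoid curve fitting.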

[5] = biological target: T3, HuR-bound target mRNAs in MDA-MB-231 cells (Homo sapiens, UniProt Q15717); assay: Ribonucleoprotein immunoprecipitation (RNP-IP) pull-down assay; format: cell-based; details: 5 μM
T3 construct: endogenous in cells; host or cells: MDA-MB-231
Procedure: Pull-down Assay #2—Ribonuleoprotein Immunoprecipitation (RNP-IP): Cells with HuR overexpression were treated with compounds, then the cell cytoplasmic lysates collected using NE-PER Nuclear and Cytoplasmic Extraction Kit (Thermo Scientific), then the cell cytoplasmic lysates incubated with anti-HuR antibody, and subsequently Protein G agarose beads (from Roche) added to pull down HuR protein. The HuR-bound target mRNAs pulled down were measured by qRT-PCR using a reported method (Ji, Q., et al., MicroRNA miR-34 inhibits human pancreatic cancer tumor-initiating cells. PLoS One, 2009. 4(8): p. e6816, incorporated herein by reference). Mouse IgG will be used as negative control. Compounds of the present technology block the target mRNAs pulled down by HuR antibody.

[6] = biological target: T4, full-length human HuR protein (Homo sapiens, UniProt Q15717); assay: FP assay of HuR-Msi1 ARE binding inhibition; details: HuR-Msi1 ARE interaction; read-out: HuR Ki via FP assay
T4 construct: full-length human HuR protein was produced by the KU COBRE-PSF Protein Purification Group; made in house
In short: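 Fluorescence polarization competition using full-length human HuR protein and a 3′-fluorescein-labelled 16-nt Msi1 ARE RNA. A fluorescein-labelled degenerate 16-nt RNA served as negative control.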

[7] = system: MDA-MB-231 HuR knockout clones (HuR KO1 and HuR KO2); assay: Cytotoxicity against HuR knockout clones of MDA-MB-231; format: cell-based; details: HuR KO1 and HuR KO2 vs MDA-MB-231 and sgControl
Procedure: (§1) The cytotoxicity of various compounds of the present technology in several cancer cell lines (pancreatic cancer cell line MIAPaCa-2, triple-negative breast cancer cell line MDA-MB-231, and colon cancer cell lines HCT116, HCT116 β/W, and RKO) was assessed by a cytotoxicity assay. Cells were seeded in 96-well culture plates (3,000-5,000 cells/well) and treated with titrated compounds in triplicate. After 96 h incubation, cell growth medium was removed and proliferation reagent WST-8 (Sigma) was added to each well and incubated at 37° C. for 1-3 h. Absorbance was then measured with a plate reader at 450 nm with correction at 650 nm. The results were expressed as the percentage of absorbance of treated wells versus that of vehicle control. IC50, the drug concentration causing 50% growth inhibition, was calculated via sigmoid curve fitting using GraphPad Prism 5.0. The results for those compounds tested against MIAPaCa-2 and MDA-MB-231 are provided in Table 1; the results for those compounds tested against colon cancer cell lines HCT116, HCT116 β/W, and RKO are provided in Table 3.
The cytotoxicity of KH-39 and KH-58 against HuR knockout clones was probed by the same assay as described above. […]

[8] = biological target: Musashi 2 (Msi2) (Homo sapiens, UniProt Q96DH6); assay: Msi2 FP assay; format: binding; details: cell marked (RRM1), read-out: Msi2 (Ki) (RRM1)
[9] = system: colon cancer cell line SW480; assay: Cytotoxicity assay (WST-8), SW480; format: cell-based; details: Homo sapiens, 96 h incubation
[10] = system: HuR targets in MDA-MB-231 cells; assay: Western blot analysis of HuR targets and cell death markers; format: cell-based
Description: As HuR promotes stability of its target mRNAs, it is expected that HuR-inhibitors will block HuR function and shorten the half-life (t1/2) of target mRNAs. mRNA stability will be determined via quantitative real-time PCR (qRT-PCR) after co-treatment of compounds of the present technology and Actinomycin D (a transcription inhibitor). Because HuR also increases the translation of target mRNAs, the effect of compounds of the present technology on protein levels of HuR targets was probed by Western blot analysis.

[11] = system: pancreatic cancer cell line MIAPaCa-2; assay: Cytotoxicity assay (WST-8), MIAPaCa-2; format: cell-based; details: Homo sapiens, MIA PaCa-2, 96 h incubation
Procedure: as §1

[12] = system: colon cancer cell line HCT116 β/W; assay: Cytotoxicity assay (WST-8), HCT116 β/W; format: cell-based; details: Homo sapiens, HCT-116, 96 h incubation
Procedure: as §1

[13] = biological target: Msi1 (Homo sapiens, UniProt O43347); assay: Msi1 FP assay; format: binding
Procedure: With the FP assay of HuR-Msi1ARE binding, the inhibition of the HuR-Msi1ARE interaction by various compounds of the present technology was assessed. Similar FP assays for Musashi 2 (Msi2) and for RNA-binding protein Lin-28 homolog B (LIN28B) were also performed on various compounds of the present technology. The results of such assays for HuR are provided in Table 1 alongside the compound structures as well as ID numbers for ease of reference; the results of such assays for Msi1, Msi2, and LIN28B are provided in Table 2.

[14] = system: colon cancer cell line RKO; assay: Cytotoxicity assay (WST-8), RKO; format: cell-based; details: 96 h incubation
Procedure: as §1

[15] = system: colon cancer cell line HCT116; assay: Cytotoxicity assay (WST-8), HCT116; format: cell-based; details: Homo sapiens, HCT-116, 96 h incubation
Procedure: as §1

[16] = system: PC3 cells; assay: mRNA level of HuR target Msi2 after docetaxel treatment; format: cell-based
Description: FIGS. 1A-F provide the results of studies illustrating RNA-binding protein Hu antigen R (HuR) is involved in chemo/radiation-induced tumor response. […] HuR knock-down by siRNA sensitized cancer cells to X-ray radiation, with an enhancement ratio (ER) of 1.5 versus the negative control (NC) siRNA (FIG. 1F).

[17] = system: MDA-MB-231 mouse xenograft; assay: MDA-MB-231 mouse xenograft model, KH-39 alone and with docetaxel; format: in vivo, mice; details: after three-week treatment; KH-39 i.p. 50 mg/kg 5 times per week; TXT i.v.; ***P<0.001, ****P<0.0001, n=12
Description: Cytotoxicity assays (as described earlier in this disclosure) for various cancer cell lines will also be performed utilizing concentrations of a compound of the present technology that are below the lethal threshold for the compound for the particular cancer (a “sub-lethal concentration”) in combination with a chemotherapeutic compound (e.g., docetaxel or doxorubicin) to illustrate compounds of the present technology sensitize cancer cell lines to chemotherapy. By way of illustration in an in vivo model, in vivo antitumor efficacy of KH-39 was examined in combination with docetaxel (a first-line chemotherapy for human breast cancer) in a MDA-MB-231 mouse xenograft model. For this, tumor-bearing female athymic mice were provided according to the protocols described earlier in the present disclosure and were randomized into four groups. One group of mice was treated with KH-39 (i.p. 50 mg/kg, 5 times per week), one group with docetaxel (TXT; i.v. at the dosages and time intervals indicated in FIG. 12), one group with a combination of KH-39 and TXT (KH-39 i.p. 50 mg/kg, 5 times per week and TXT i.v. at the dosages and time intervals indicated in FIG. 12), and one group of mice as the vehicle control. FIG. 12 illustrates the results, providing the tumor growth curves for each group.

Sequence of Musashi 2 (Msi2) (Q96DH6 whole entry, species assumed): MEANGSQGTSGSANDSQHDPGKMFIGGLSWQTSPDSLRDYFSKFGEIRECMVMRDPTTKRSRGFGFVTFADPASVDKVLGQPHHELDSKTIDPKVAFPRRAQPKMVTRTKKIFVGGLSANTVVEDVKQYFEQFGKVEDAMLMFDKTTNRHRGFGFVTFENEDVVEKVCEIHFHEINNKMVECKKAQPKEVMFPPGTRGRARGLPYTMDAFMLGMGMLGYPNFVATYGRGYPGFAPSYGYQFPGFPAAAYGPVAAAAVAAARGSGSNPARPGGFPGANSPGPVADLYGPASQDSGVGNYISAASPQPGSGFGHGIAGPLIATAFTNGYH
T4 sequence (Q15717 whole entry): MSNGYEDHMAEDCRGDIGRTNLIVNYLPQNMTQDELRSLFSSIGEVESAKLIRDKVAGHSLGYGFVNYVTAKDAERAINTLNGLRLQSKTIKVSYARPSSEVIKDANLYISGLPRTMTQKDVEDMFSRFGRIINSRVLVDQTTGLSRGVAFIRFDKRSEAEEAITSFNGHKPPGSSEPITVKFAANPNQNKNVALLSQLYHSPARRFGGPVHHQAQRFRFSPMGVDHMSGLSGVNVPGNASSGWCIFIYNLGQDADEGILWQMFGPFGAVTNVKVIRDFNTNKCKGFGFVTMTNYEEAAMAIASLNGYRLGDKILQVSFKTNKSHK
Sequence of Msi1 (O43347 whole entry, species assumed): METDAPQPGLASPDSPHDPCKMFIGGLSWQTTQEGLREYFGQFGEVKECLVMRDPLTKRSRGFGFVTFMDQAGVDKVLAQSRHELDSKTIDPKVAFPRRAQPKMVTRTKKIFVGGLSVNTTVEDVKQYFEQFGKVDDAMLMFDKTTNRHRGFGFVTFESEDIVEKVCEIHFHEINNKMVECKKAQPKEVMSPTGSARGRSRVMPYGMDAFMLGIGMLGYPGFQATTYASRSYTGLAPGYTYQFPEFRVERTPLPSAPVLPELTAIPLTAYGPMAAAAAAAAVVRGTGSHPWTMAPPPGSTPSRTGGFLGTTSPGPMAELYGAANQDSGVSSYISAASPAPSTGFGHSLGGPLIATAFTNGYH
T3 sequence (Q15717 2-326 limits assumed): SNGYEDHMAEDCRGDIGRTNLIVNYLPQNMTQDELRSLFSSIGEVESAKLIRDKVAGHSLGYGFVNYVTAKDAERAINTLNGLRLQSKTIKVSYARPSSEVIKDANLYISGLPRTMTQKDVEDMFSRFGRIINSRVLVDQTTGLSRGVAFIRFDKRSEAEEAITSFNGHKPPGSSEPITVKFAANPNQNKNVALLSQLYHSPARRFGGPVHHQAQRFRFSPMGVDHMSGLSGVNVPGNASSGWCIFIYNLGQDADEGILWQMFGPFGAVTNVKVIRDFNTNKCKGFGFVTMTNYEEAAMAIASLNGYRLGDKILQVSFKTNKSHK
T1 sequence (Q15717 2-326 limits assumed): as above

Ki [3] [µM]	Ki [6] [µM]	Ki [8] [µM]	Ki [13] [µM]	SMILES	ARE^Msi1-Biotin mediated pull-down of HuR protein [1]	MDA-MB-231 cell invasion ([2]; 5 μM)	IC50 [4] [µM]	HuR pull-down of target mRNAs [5]	IC50 of HuR KO clones versus parental cells and vector control cells [7]	IC50 [9] [µM]	MDA-MB-231 cell invasion ([2]; concentrations indicated in FIG. 8)	cell death mechanisms: PARP cleavage, LC3 conversion, RIP3 activation [10]	protein levels of HuR targets [10]	IC50 [11] [µM]	IC50 [12] [µM]	IC50 [14] [µM]	IC50 [15] [µM]	mRNA levels of HuR target Musashi 2 (Msi2) [16]	relative tumor sizes versus control group [17]
4.57	0.61	3.35		CN(C)c1ccc(C(=O)Nc2ccc3sc(C(=O)NO)cc3c2)cc1 [KH-58, 5-(4-(dimethylamino)benzamido)-N-hydroxybenzo[b]thiophene-2-carboxamide]	block ARE^Msi1-Biotin mediated pull-down of HuR protein	clearly inhibited MDA-MB-231 cell invasion	1.31	at least partially block HuR pull-down of target mRNAs	two to three folds higher IC50 values										
3.2	0.15	0.45	1.97	CC(C)(C)c1ccc(C(=O)Nc2ccc3sc(/C=C/C(=O)NO)cc3c2)cc1 [KH-19, (E)-4-(tert-butyl)-N-(2-(3-(hydroxyamino)-3-oxoprop-1-en-1-yl)benzo[b]thiophen-5-yl)benzamide]			1.33			5.14	inhibited MDA-MB-231 cell invasion	induced cell death through apoptosis, autophagy and necroptosis	decreased the protein levels of HuR targets	2.34	2.63	4.48	2.22		
				CC(=O)O[C@@]12CO[C@@H]1C[C@H](O)[C@@]1(C)C(=O)[C@H](O)C3=C(C)[C@@H](OC(=O)[C@H](O)[C@@H](NC(=O)OC(C)(C)C)c4ccccc4)C[C@@](O)([C@@H](OC(=O)c4ccccc4)[C@H]21)C3(C)C [docetaxel, reference compound]														increased the mRNA levels of HuR target Musashi 2 (Msi2)	significantly smaller than those in control group
